# Results published in patent US12648965B2, “Use of bovine spleen peptide powder in improving sleep, preventing or treating depression, or improving intestinal function” (BEIJING NO. 1 BIO-TECHNOLOGY DEVELOPMENT CO., LTD., priority 2022, dated 2026).
# Legend:
# [1] = tested on: zebrafish model of gastrointestinal mucosal injury (TNBS); assay: Evaluation of regulatory efficacy on intestinal goblet cells, TNBS zebrafish model; format: in vivo; conditions: 15.0 μg/mL, 2 days after TNBS, n = 10
# Experimental: The 3 dpf wild type zebrafish of line AB were randomly selected and placed in a 6-well plate, and for the experimental groups 30 zebrafish were treated in each well. Except for the normal control group (fed in a conventional manner), all the other experimental groups were given aqueous TNBS to establish a zebrafish model of gastrointestinal mucosal injury. After a 2-day treatment at 28° C., TNBS was removed, and the bovine spleen peptide powder dissolved in water was given at a concentration as shown in Table 9 below. The positive control prednisone was at a concentration of 15.0 μg/mL. Meanwhile, a normal control group and a model control group (i.e., a zebrafish model of gastrointestinal mucosal injury model established by TNBS) were set, with a capacity of 3 mL per well. After a further 2-day treatment at 28° C., 10 zebrafish from each experimental group were randomly selected and placed under the dissecting microscope for photographing. Data were acquired by the NIS-Elements D 3.20 advanced image processing software. The number of goblet cells in the intestine of zebrafish was analyzed. Statistical results were used to evaluate the regulatory efficacy of the goblet cells in the intestine of the zebrafish. The statistical results were expressed as “mean±standard deviation”.
# [2] = tested on: zebrafish model of insomnia established by PTZ; assay: Evaluation of the efficacy in improving sleep, PTZ zebrafish model of insomnia; format: in vivo; conditions: 125 μg/mL, 24 h, n = 10
# Source text: In the present application, a state in which zebrafish is in a speed of movement of greater than 20 mm/s is considered to be an awake state, a state in which the speed of movement is less than 4 mm/s is considered to be a sleep state, and a state in which the speed of movement is 4-20 mm/s corresponds to sleep latency.
# As used herein, the term “amount of wake after sleep onset” refers to the distance of movements during which the speed of movement is greater than 20 mm/s.
# As used herein, the term “time of wake after sleep onset” refers to the time of movements during which the speed of movement is greater than 20 mm/s.
# The 5 dpf wild type zebrafish of line AB were randomly selected and placed in a 6-well plate, and for the experimental groups 30 zebrafish were treated in each well. The positive control melatonin was in a concentration of 125 μg/mL. Meanwhile, the normal control group (fed in a conventional manner) and the model control group (i.e., the zebrafish model of insomnia established by PTZ) were set, with a capacity of 3 mL per well. […] The zebrafish were analyzed for amount of wake after sleep onset and time of wake after sleep onset. The bovine spleen peptide powder was evaluated for its efficacy in sleep improvement through statistical analysis results of the above indicators. The statistical results were expressed as “mean±standard deviation”.
Structure (SMILES),Number of intestinal goblet cells (mean ± standard deviation) [1] [count],Amount of wake after sleep onset (mean ± standard deviation) [2] [mm],Time of wake after sleep onset (mean ± standard deviation) [2] [s]
"C[C@]12C=CC(=O)C=C1CC[C@@H]1[C@@H]2C(=O)C[C@@]2(C)[C@H]1CC[C@]2(O)C(=O)CO [Prednisone, prednisone]",47.2 ± 1.89,,
"COc1ccc2[nH]cc(CCNC(C)=O)c2c1 [Melatonin, melatonin]",,346 ± 35.3,8.18 ± 0.795
